Test results taken from patent US20240067634A1, “INHIBITORS OF NEF DOWNMODULATION” (priority 2020, published 2024).
Read-outs that look alike come from different tables or passages of the source.

Target: V-ATPase-dependent lysosomal acidification
Test: cells
Format: cell-based, human
Conditions: read-out: Lyso IC50
Description: Determine effect on V-ATPase activity: Plecomacrolides are known inhibitors of V-ATPase that neutralize normally acidified lysosomes. […] Thus, analogs of the disclosure are further characterized by measuring their effects on lysosome acidification.
LysoTracker® is a fluorophore linked to a weak base that is partially protonated at neutral pH. This form of the probe is capable of freely permeating cell membranes of live cells. In acidic compartments, protonation creates a form that was impermeable causing the probe to accumulate inside the lysosome.

[1] = 24 hr Lysotracker IC50, 1000 nM set as activity threshold (FIG. 11-14)
[2] = Homo sapiens, PBMC, 24 h, 24 hr Lysotracker IC50, 1000 nM set as activity threshold (FIG. 11-14)

Compound | IC50 [2] [nM] | other results
19-Deoxy-20-ene Baf A1 |  | IC50 [1]: 341 nM
19-Deoxy-21-Methoxy Baf A1 |  | IC50 [1]: 49.6 nM
19-Deoxy-21-allylester Baf A1 |  | IC50 [1]: 152 nM
C/C=C/[C@H]1O[C@@H]([C@@H](C)[C@H](O)[C@H](C)[C@H]2OC(=O)/C(O)=C/C(C)=C/[C@@H](C)[C@@H](O)[C@@H](CC)[C@@H](O)[C@H](C)C/C(C)=C/C=C/[C@@H]2OC)C[C@@H](O)[C@@H]1C [2-hydroxy-21-deoxy CMF, 21-deoxy-2-hydroxy-Concanamycin F] | ≥ 1000 | 
C#CCCC(=O)O[C@@H]1[C@H](C)/C=C(C)/C=C(\OC)C(=O)O[C@H]([C@@H](C)[C@@H](O)[C@H](C)[C@@]2(O)C[C@@H](OC(=O)c3ccc(C4(C(F)(F)F)N=N4)cc3)[C@H](C)[C@@H](C(C)C)O2)[C@@H](OC)/C=C/C=C(\C)C[C@@H]1C [7 Alkyne 21-Y Bafilomycin Probe, 21-(3-(trifluoromethyl)-3H-diazirin-3-yl)benzoate-7-pent-4-ynoate-Bafilomycin] | ≥ 1000 | 
CO/C1=C\C(C)=C\[C@@H](C)C(=O)[C@@H](C)C/C(C)=C/C=C/[C@H](OC)[C@@H]([C@@H](C)[C@@H](O)[C@H](C)[C@@]2(O)CC(=O)[C@H](C)[C@@H](C(C)C)O2)OC1=O [7,21-Dione Baf A1, 7,21-dione Bafilomycin] |  | IC50 (Homo sapiens, PBMC, 24 h): ≥ 1000 nM
CO/C1=C\C(C)=C\[C@@H](C)C(=O)[C@@H](C)C/C(C)=C/C=C/[C@H](OC)[C@@H]([C@@H](C)[C@@H](O)[C@H](C)[C@@]2(O)C[C@@H](O)[C@H](C)[C@@H](C(C)C)O2)OC1=O [7-One Baf A1, 7-one Bafilomycin] |  | IC50 (Homo sapiens, PBMC, 24 h): ≥ 1000 nM
CO/C1=C\C(C)=C\[C@@H](C)[C@@H](O)[C@@H](C)C/C(C)=C/C=C/[C@H](OC)[C@@H]([C@@H](C)[C@@H](O)[C@H](C)[C@H]2C[C@@H](O)[C@H](C)[C@@H](C(C)C)O2)OC1=O [19-Deoxy Baf A1, 19-deoxy Bafilomycin] | 111 | 
C#CCCC(=O)O[C@@H]1C[C@H]([C@@H](C)[C@H](O)[C@H](C)[C@H]2OC(=O)/C(OC)=C/C(C)=C/[C@@H](C)[C@@H](O)[C@@H](C)C/C(C)=C/C=C/[C@@H]2OC)OC(C(C)C)[C@H]1C (stereo partly shown) [19-Deoxy-21(4-Pentynoate) Baf A1, 19-deoxy-21-pent-4-ynoate Bafilomycin] | 76.4 | 
C#CCCC(=O)O[C@@H]1C[C@](O)([C@@H](C)[C@H](O)[C@H](C)[C@H]2OC(=O)/C(OC)=C/C(C)=C/[C@@H](C)[C@@H](O)[C@@H](C)C/C(C)=C/C=C/[C@@H]2OC)O[C@H](C(C)C)[C@H]1C [21 Alkyne Bafilomycin Probe, 21-pent-4-ynoate Bafilomycin] | 29.1 | 
C#CCCC1(CCC(=O)O[C@@H]2C[C@](O)([C@@H](C)[C@H](O)[C@H](C)[C@H]3OC(=O)/C(OC)=C/C(C)=C/[C@@H](C)[C@@H](O)[C@@H](C)C/C(C)=C/C=C/[C@@H]3OC)O[C@H](C(C)C)[C@H]2C)N=N1 [21 Dual Linear Bafilomycin Probe, 21-(3-(3-(but-3-yn-1-yl)-3H-diazirin-3-yl)propanoate) Bafilomycin] | 28.3 | 
CO/C1=C\C(C)=C\[C@@H](C)[C@@H](O)[C@@H](C)C/C(C)=C/C=C/[C@H](OC)[C@@H]([C@@H](C)[C@@H](O)[C@H](C)[C@@]2(O)C[C@@H](OC(C)=O)[C@H](C)[C@@H](C(C)C)O2)OC1=O [21-Acetyl Baf, 21-Acetyl Bafilomycin] |  | IC50 (Homo sapiens, PBMC, 24 h): 22.7 nM
C/C=C/[C@H]1O[C@@H]([C@@H](C)[C@H](O)[C@H](C)[C@H]2OC(=O)/C(OC)=C/C(C)=C/[C@@H](C)[C@@H](O)[C@@H](CC)[C@@H](O)[C@H](C)C/C(C)=C/C=C/[C@@H]2OC)C[C@@H](O[C@@H]2C[C@H](O)[C@@H](O)[C@H](C)O2)[C@@H]1C [21-Deoxy CMC, 21-deoxy CMC] | 7.04 | 
CCCCCCCCC(=O)O[C@@H]1C[C@](O)([C@@H](C)[C@H](O)[C@H](C)[C@H]2OC(=O)/C(OC)=C/C(C)=C/[C@@H](C)[C@@H](O)[C@@H](C)C/C(C)=C/C=C/[C@@H]2OC)O[C@H](C(C)C)[C@H]1C [21-Nonanoate Baf A1, 21-nonanoate Bafilomycin] | 146 | 
C/C=C/CC(=O)O[C@@H]1C[C@](O)([C@@H](C)[C@H](O)[C@H](C)[C@H]2OC(=O)/C(OC)=C/C(C)=C/[C@@H](C)[C@@H](O)[C@@H](C)C/C(C)=C/C=C/[C@@H]2OC)O[C@H](C(C)C)[C@H]1C [21-Penta-3-enoate Baf A1, 21-pent-3-enoate Bafilomycin] | 60.2 | 
CCCCC(=O)O[C@@H]1C[C@](O)([C@@H](C)[C@H](O)[C@H](C)[C@H]2OC(=O)/C(OC)=C/C(C)=C/[C@@H](C)[C@@H](O)[C@@H](C)C/C(C)=C/C=C/[C@@H]2OC)O[C@H](C(C)C)[C@H]1C [21-Pentanoate Baf A1, 21-pentanone Bafilomycin] | 62.3 | 
CO/C1=C\C(C)=C\[C@@H](C)[C@@H](O)[C@@H](C)C/C(C)=C/C=C/[C@H](OC)[C@@H]([C@@H](C)[C@@H](O)[C@H](C)[C@H]2C[C@@H](OC(=O)c3ccc(C4(C(F)(F)F)N=N4)cc3)[C@H](C)[C@@H](C(C)C)O2)OC1=O [21-Y Bafilomycin Probe, 21-(3-(trifluoromethyl)-3H-diazirin-3-yl)benzoate Bafilomycin] | ≥ 1000 | 
C=C/C=C/C(=O)O[C@@H]1C[C@](O)([C@@H](C)[C@H](O)[C@H](C)[C@H]2OC(=O)/C(OC)=C/C(C)=C/[C@@H](C)[C@@H](O)[C@@H](C)C/C(C)=C/C=C/[C@@H]2OC)O[C@H](C(C)C)[C@H]1C [21-penta-2,4-dienoate Baf A1, 21-penta-2,4-dienoate Bafilomycin] | 25.1 | 
C#CCCC(=O)O[C@H]1C[C@@H](O[C@@H]2C[C@](O)([C@@H](C)[C@H](O)[C@H](C)[C@H]3OC(=O)/C(OC)=C/C(C)=C/[C@@H](C)[C@@H](O)[C@@H](CC)[C@@H](O)[C@H](C)C/C(C)=C/C=C/[C@@H]3OC)O[C@H](/C=C/C)[C@H]2C)O[C@@H](C)[C@@H]1OC(N)=O [23-Alkyne CMA, 3′-pent-4-ynoate Concanamycins A-C] |  | IC50 [1]: 1.1 nM
C#CCCC(=O)O[C@H]1C[C@@H](O[C@@H]2C[C@](O)([C@@H](C)[C@H](O)[C@H](C)[C@H]3OC(=O)/C(OC)=C/C(C)=C/[C@@H](C)[C@@H](O)[C@@H](C)[C@@H](O)[C@H](C)C/C(C)=C/C=C/[C@@H]3OC)O[C@H](/C=C/C)[C@H]2C)O[C@@H](C)[C@@H]1OC(N)=O [23-Alkyne CMB, 3′-pent-4-ynoate Concanamycins A-C] | 5.75 | 
C#CCCC(=O)O[C@H]1C[C@@H](O[C@@H]2C[C@](O)([C@@H](C)[C@H](O)[C@H](C)[C@H]3OC(=O)/C(OC)=C/C(C)=C/[C@@H](C)[C@@H](O)[C@@H](CC)[C@@H](O)[C@H](C)C/C(C)=C/C=C/[C@@H]3OC)O[C@H](/C=C/C)[C@H]2C)O[C@@H](C)[C@@H]1OC(N)=O [23-Alkyne CMC, 3′-pent-4-ynoate Concanamycins A-C] |  | IC50 [1]: 5.72 nM
C#CCCC1(CCC(=O)O[C@H]2C[C@@H](O[C@@H]3C[C@](O)([C@@H](C)[C@H](O)[C@H](C)[C@H]4OC(=O)/C(OC)=C/C(C)=C/[C@@H](C)[C@@H](O)[C@@H](C)[C@@H](O)[C@H](C)C/C(C)=C/C=C/[C@@H]4OC)O[C@H](/C=C/C)[C@H]3C)O[C@@H](C)[C@@H]2OC(N)=O)N=N1 [23-Dual Linear Probe CMB, 3′-(3-(3-(but-3-yn-1-yl)-3H-diazirin-3-yl)propanoate) Concanamycin B] | 23.2 | 
